How the values were obtained:
[1] = system: humanized Siglec-11 transgenic mice; experiment: Septic encephalopathy model: TNF-alpha gene transcripts after repeated systemic LPS; format: in vivo; settings: 4x LPS plus 4x PSA-20 1 μg per gram body weight i.p., 24 hours after last application
Experimental: Humanized Siglec-11 transgenic mice (Wang Y, 2009, dissertation, University Bonn, uniform resource name: urn:nbn:de:hbz:5N-18095) expressing human Siglec-11 under the Iba1-promoter in microglia and wildtype littermate control mice were used in this experiment. For gene transcript analysis, RNA was isolated from brains with Trizol followed with the RNeasy Mini Kit (Qiagen). Reverse transcription of RNA was performed with SuperScript III reverse transcriptase (Invitrogen) and hexamer random primers (Roche Molecular Biochemicals). Quantitative RT-PCR with specific oligonucleotides was performed with SYBR Green PCR Master Mix (Applied Biosystems) using the ABI 5700 Sequence Detection System (Perkin Elmer) and amplification protocol for the ABI 5700 Sequence Detection System. […] Results were analyzed with the ABI 5700 Sequence Detection System v.1.3 after establishing the reaction efficiency for each primer pair. Quantification using the delta-CT method was carried out.
Mice were either treated intraperitoneally with 4× lipopolysaccharide (LPS from Salmonella abortus equi S-form (ENZO Life Science), 1 μg per gram body weight) or 4×LPS (1 μg per gram body weight) plus 4×PSA-20 (1 μg per gram body weight) or 4×PBS. […] Mice were analyzed 24 hours after the last application.
Gene transcripts for TNF-alpha were determined from the total brain tissue by qRT-PCR at 24 hours after the last application.

[2] = system: human neurons co-cultured with LPS-pre-activated human microglia; experiment: LPS-toxin induced microglia-neuron co-culture Parkinson's disease model (neurite length); format: cell-based; settings: 1.5 μM, 48 hours, without PSA-20 0.64+/−0.01, FIG. 9A
Experimental: Human induced pluripotent stem cell-derived microglia (iPSdM) were obtained from induced pluripotent stem (iPS) cells. The microglial iPSdM line 1 (iPSdM-1) was used in this study generated from the iLB-C-35m-r1 clone (Bonn). iPSdM-1 (here named microglia or microglial cells) were cultured in N2-medium consisting of DMEM/F12 culture medium (Gibco) supplemented with 1% N2 (Invitrogen), 0.48 mM L-glutamine (Gibco) and 100 μg/ml penicillin/streptomycin (Gibco). Human induced pluripotent stem (iPS) cells (Foreskin-1, WiCell) were used for the generation of primitive neural stem cell (pNSC) and their differentiation into neurons according to a modified protocol, which was used to obtain primitive neural precursors from human embryonic stem cells. Briefly, iPS cells were cultured on feeder cells to form small colonies. […]
10 pictures per condition per experiment were taken by confocal laser scanning microscopy (Fluoview 1000, Olympus). Measurement of neuronal branches was done by ImageJ/Neuron J software (NIH) and relative neural branches lengths were quantified. […]

For poly-(α(2→8)Neu5Ac)n [PSA-20], the “gene transcripts for TNF-alpha in the spleen” value [1] was “No change”, the “gene transcription levels of TNF-alpha in the brain tissue” value ([1]; Siglec-11 transgenic mice) was “reduced gene transcription levels” and the relative neurite length [2] was 0.91+/−0.02.

Reference: patent publication US9944721B2, “Polysialic acid and use for treatment of neurodegenerative and neuroinflammatory diseases” (RHEINISCHE FRIEDRICH-WILHELMS UNIVERSITÄT BONN, priority 2013, dated 2018)
